Values joined by “and” are separate entries in the source; they are usually repeats but may differ in a detail not shown here. Identical values can stand only once.

For this assay, the target named is human O-GlcNAcase (Homo sapiens (Human), UniProt O60502). Description: Assay for determination of KI values for inhibition of O-GlcNAcase activity. Type of assay: biochemical. The conditions noted are these: purified human O-GlcNAcase 0.7 nM; substrate 2 mM 4-Methylumbelliferyl N-acetyl-β-D-glucosaminide; pH 7.0; room temperature; Cheng-Prusoff; read-out: hOGA Ki. On the procedure: Assay for Determination of KI Values for Inhibition of O-GlcNAcase Activity
Sequence of human O-GlcNAcase (O60502 whole entry): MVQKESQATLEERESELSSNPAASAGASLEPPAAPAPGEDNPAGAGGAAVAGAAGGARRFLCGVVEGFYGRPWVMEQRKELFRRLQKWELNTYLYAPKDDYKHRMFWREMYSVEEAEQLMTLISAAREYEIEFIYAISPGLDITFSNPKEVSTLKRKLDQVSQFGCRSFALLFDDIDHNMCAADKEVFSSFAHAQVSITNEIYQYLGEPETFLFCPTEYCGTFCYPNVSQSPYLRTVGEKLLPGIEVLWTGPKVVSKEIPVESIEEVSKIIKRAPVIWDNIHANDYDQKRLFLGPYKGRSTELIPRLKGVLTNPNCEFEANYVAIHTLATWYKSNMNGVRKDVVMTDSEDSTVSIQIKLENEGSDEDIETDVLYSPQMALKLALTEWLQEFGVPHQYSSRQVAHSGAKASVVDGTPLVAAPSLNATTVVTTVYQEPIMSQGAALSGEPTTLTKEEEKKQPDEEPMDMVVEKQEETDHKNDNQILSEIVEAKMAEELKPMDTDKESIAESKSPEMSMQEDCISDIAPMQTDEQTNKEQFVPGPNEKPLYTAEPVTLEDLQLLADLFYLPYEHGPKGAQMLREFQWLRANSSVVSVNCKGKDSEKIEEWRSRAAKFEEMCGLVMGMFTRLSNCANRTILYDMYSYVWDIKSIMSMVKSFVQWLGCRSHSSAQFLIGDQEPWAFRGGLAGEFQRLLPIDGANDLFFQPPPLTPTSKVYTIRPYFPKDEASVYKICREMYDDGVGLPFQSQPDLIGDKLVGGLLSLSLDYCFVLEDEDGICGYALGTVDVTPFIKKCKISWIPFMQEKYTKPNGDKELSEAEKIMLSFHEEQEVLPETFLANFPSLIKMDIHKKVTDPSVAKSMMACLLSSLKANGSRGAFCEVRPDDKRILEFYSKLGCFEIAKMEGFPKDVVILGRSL
Experimental procedure for kinetic analyses: Enzymatic reactions were carried out in a reaction containing 50 mM NaH2PO4, 100 mM NaCl and 0.1% BSA (pH 7.0) using 2 mM 4-Methylumbelliferyl N-acetyl-β-D-glucosaminide dihydrate (Sigma M2133) dissolved in ddH2O, as a substrate. The amount of purified human O-GlcNAcase enzyme used in the reaction was 0.7 nM. Test compound of varying concentrations was added to the enzyme prior to initiation of the reaction. The reaction was performed at room temperature in a 96-well plate and was initiated with the addition of substrate. The production of fluorescent product was measured every 60 sec for 45 min with a Tecan Infinite M200 plate-reader with excitation at 355 nm and emission detected at […], with 4-Methylumbelliferone (Sigma M1381) used to produce a standard curve. The slope of product production was determined for each concentration of compound tested and plotted, using standard curve fitting algorithms for sigmoidal dose response curves. The values for a four parameter logistic curve fit of the data were determined. KI values were determined using the Cheng-Prusoff equation; the Km of O-GlcNAcase for substrate was 0.2 mM.
Take `CC(=O)Nc1ncc(CN2CCC(=Cc3ccc(OC(=O)OC(C)(C)C)cc3)CC2)s1` [Example 5, 4-((1-((2-acetamidothiazol-5-yl)methyl)piperidin-4-ylidene)methyl)phenyl tert-butyl carbonate]: the Ki – broadly, the equilibrium dissociation constant of an inhibitor or competing ligand from its target – was determined as 3.53 nM. The same measure for `COc1ccc(/C=C2/CCN(Cc3cnc(NC(C)=O)s3)[C@@H](C)C2)cc1` [Example 38, (S,Z)-N-(5-((4-(4-methoxybenzylidene)-2-methylpiperidin-1-yl)methyl)thiazol-2-yl)acetamide]: 0.287 nM. As for `CC(=O)Nc1ncc(CN2CCC(=Cc3cncnc3)CC2)s1` [Example 15, N-(5-((4-(pyrimidin-5-ylmethylene)piperidin-1-yl)methyl)thiazol-2-yl)acetamide], the Ki came out at 3.37 nM. The same measure for `CC(=O)Nc1ncc(CN2CC/C(=C/c3ccc(F)nc3)C[C@@H]2C)s1` [Example 52, (S,Z)—N-(5-((4-((6-fluoropyridin-3-yl)methylene)-2-methylpiperidin-1-yl)methyl)thiazol-2-yl)acetamide]: 0.389 nM. On to `COc1ccc(C=C2CCN(Cc3cnc(NC(C)=O)s3)CC2)cc1OC` [Example 1, N-(5-((4-(3,4-dimethoxybenzylidene)piperidin-1-yl)methyl)thiazol-2-yl)acetamide], for which the Ki was 0.392 nM.

Take `CC(=O)Nc1ncc(CN2CCC(=Cc3ccc4c(c3)OCCO4)CC2)s1` [Example 20, N-(5-{[4-(2,3-dihydro-1,4-benzodioxin-6-ylmethylidene)piperidin-1-yl]methyl}-1,3-thiazol-2-yl)acetamide]: the Ki was 1.79 nM. Take `CC(=O)Nc1ncc(CN2CCC(=Cc3ccc(C)cc3)CC2)s1` [Example 13, N-(5-((4-(4-methylbenzylidene)piperidin-1-yl)methyl)thiazol-2-yl)acetamide]: the Ki was 0.741 nM. In the case of `COc1ccc(C=C2CCN(Cc3cnc(NC(C)=O)s3)CC2)cc1` [Example 46, N-[5-({4-[(4-methoxyphenyl)methylidene]piperidin-1-yl}methyl)-1,3-thiazol-2-yl]acetamide], the Ki was determined as 2 nM.

On to `CC(=O)Nc1ncc(CN2CC/C(=C/c3ccccc3)C[C@@H]2C)s1` [Example 34, (S,Z)-N-(5-{(4-benzylidene-2-methylpiperidin-1-yl)methyl)thiazol-2-yl)acetamide], for which the Ki stood at 1.04 nM. Consider `COc1ccc(/C=C2/CCN(Cc3cnc(NC(C)=O)s3)[C@H](C)C2)cc1` [Example 40, (R,Z)-N-(5-((4-(4-methoxybenzylidene)-2-methylpiperidin-1-yl)methyl)thiazol-2-yl)acetamide], for which the Ki came out at 71.2 nM. Turning to `CC(=O)Nc1ncc(CN2CCC(=Cc3ccc(F)cc3)CC2)s1` [Example 32, N-[5-({4-[(4-fluorophenyl)methylidene]piperidin-1-yl}methyl)-1,3-thiazol-2-yl]acetamide], the Ki came out at 2.7 nM. Consider `COc1ccc(/C=C2\CCN(Cc3cnc(NC(C)=O)s3)[C@H](C)C2)cc1` [Example 39, (R,E)-N-(5-((4-(4-methoxybenzylidene)-2-methylpiperidin-1-yl)methyl)thiazol-2-yl)acetamide], for which the inhibition constant (Ki) was found to be 126 nM. With `CC(=O)Nc1ncc(CN2CCC(=Cc3ccc(CF)cc3)CC2)s1` [Example 26, N-(5-((4-(4-(fluoromethyl)benzylidene)piperidin-1-yl)methyl)thiazol-2-yl)acetamide], the Ki is 0.167 nM and 0.0753 nM. For `CC(=O)Nc1ncc(CN2CCC(=Cc3ccc(CCF)cc3)CC2)s1` [Example 27, N-(5-((4-(4-(2-fluoroethyl)-benzylidene)piperidin-1-yl)methyl)thiazol-2-yl)acetamide] the value was 0.411 nM.

For `COc1ccc(C=C2CCN(Cc3cnc(NC(C)=O)s3)CC2)cc1O` [Example 23, N-[5-({4-[(3-hydroxy-4-methoxyphenyl)methylidene]piperidin-1-yl}methyl)-1,3-thiazol-2-yl]acetamide], the Ki came out at 1.51 nM.

(Values after patent US10913733B2, “Substituted piperidines thiazolyl acetamides as glycosidase inhibitors and uses thereof” (priority 2015, dated 2021).)
